Test results published in PubChem BioAssay (NCI).
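Five compound concentrations were applied to cells in 96-well plates for 48 hours; endpoints were derived by simple linear interpolation of the resulting dose-response curve. GI50 = concentration required for 50% inhibition of growth. The concentration for full growth arrest is given as TGI.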

What was measured:
Experiment in all cases: NCI tumour cell line growth inhibition, 48 h
A549 NSCLC = tested on: A549 NSCLC
ACHN renal = tested on: ACHN renal
CAKI-1 renal = tested on: CAKI-1 renal
M14 melanoma = tested on: M14 melanoma
NCI-H460 lung = tested on: NCI-H460 lung
RPMI-8226 leukemia = tested on: RPMI-8226 leukemia
SK-MEL-28 melanoma = tested on: SK-MEL-28 melanoma
SK-OV-3 ovarian = tested on: SK-OV-3 ovarian
SW-620 colon = tested on: SW-620 colon
OVCAR-5 ovarian = tested on: OVCAR-5 ovarian

SMILES | GI50 (A549 NSCLC) [µM] | TGI (A549 NSCLC) [µM] | GI50 (ACHN renal) [µM] | TGI (ACHN renal) [µM] | GI50 (CAKI-1 renal) [µM] | TGI (CAKI-1 renal) [µM] | GI50 (M14 melanoma) [µM] | TGI (M14 melanoma) [µM] | GI50 (NCI-H460 lung) [µM] | TGI (NCI-H460 lung) [µM] | GI50 (RPMI-8226 leukemia) [µM] | TGI (RPMI-8226 leukemia) [µM] | GI50 (SK-MEL-28 melanoma) [µM] | TGI (SK-MEL-28 melanoma) [µM] | GI50 (SK-OV-3 ovarian) [µM] | TGI (SK-OV-3 ovarian) [µM] | GI50 (SW-620 colon) [µM] | TGI (SW-620 colon) [µM] | TGI (OVCAR-5 ovarian) [µM] | GI50 (OVCAR-5 ovarian) [µM]
COc1ccc2cc(C(=O)/C=C/c3ccco3)ccc2c1 | 31.8 | > 100 | 29.4 | 79.1 | 38.7 | > 100 | 0.19 | 12.6 | 22.7 | 52.6 | 32 | 99.3 | > 100 | > 100 | 53.1 | > 100 | 35 | > 100 |  | 
Cc1ccc(C)c(N2C(=O)C(=O)c3c(C)ccc(C)c32)c1 |  | > 100 |  | 33.4 |  | 87.1 |  | 39.6 |  | > 100 |  |  |  | > 100 |  | > 100 |  | > 100 | > 100 | 
Cc1ccc(S(=O)(=O)NC(=O)C#CCOC2CCCCO2)cc1 (stereo not drawn) |  | > 100 |  | > 100 |  | > 100 |  | > 100 |  | > 100 |  | > 100 |  | > 100 |  |  |  | > 100 | > 100 | 
O=c1nc(-c2ccccc2)scc1-c1ccccc1 |  | > 100 |  | > 100 |  | > 100 |  | > 100 |  | > 100 |  | > 100 |  | > 100 |  | > 100 |  | > 100 |  | 
COc1cccc(N2C(=O)[C@H]3[C@H]4CC(C(C)(C)C)CC[C@H]4c4c([nH]c5ccccc45)[C@H]3C2=O)c1 (stereo partly drawn) |  | 29 |  |  |  | 32.3 |  | 30.7 |  |  |  | 35 |  | 35.6 |  | 35.3 |  | 41 |  | 
CO[C@]12CCC(=O)N1C=Cc1c2[nH]c2ccccc12 |  | > 100 |  | > 100 |  | > 100 |  | > 100 |  | > 100 |  | > 100 |  | > 100 |  |  |  | > 100 | > 100 | 
CNc1ccc(C(=O)CC(O)CCC(C)C2OC(=O)CC(O)CC(=O)CC(O)CC(O)CC(O)CC(O)CC3(O)CC(O)C(C(=O)NCCc4ccccn4)C(CC(OC4OC(C)C(O)C(N)C4O)/C=C/C=C/C=C/C=C\C=C/C=C/C=C/C2C)O3)cc1 (stereo not drawn) |  |  | 0.841 | 1.53 | 0.165 | 0.633 | 0.165 |  | 0.238 | > 17.8 | 0.823 | > 50 | 0.161 | > 50 | 2.32 | > 50 | > 41.5 | > 50 | 2.02 | 0.323
O=C(CC(=O)c1cccc([N+](=O)[O-])c1)C(=O)Nc1nc([N+](=O)[O-])cs1 |  | > 100 |  |  |  | > 100 |  | > 100 |  | > 100 |  | > 100 |  | > 100 |  | > 100 |  | > 100 | > 100 | 
Cc1nn(-c2ccccc2)c(C)c1/C=N/N1CCN(Cc2ccccc2)CC1 | > 100 | > 100 | 52.4 | > 100 | > 100 | > 100 |  |  | 33.5 | > 100 | 19.9 | 48.9 | 80.5 | > 100 |  |  | > 100 | > 100 | > 100 | > 100
CN1CCc2cc(O)c3cc2C1Cc1ccc(cc1)Oc1cc(ccc1O)CC1c2c(cc4c(c2O3)OCO4)CCN1C (stereo not drawn) |  | > 100 |  | > 100 |  |  |  | 32.2 |  | > 100 |  |  |  | 46.4 |  |  |  |  | 87.7 | 
CCCC(=O)Nc1ncnc2c1ncn2C1OC2COP(=O)(O)OC2C1OC(=O)CCC (stereo not drawn) | > 1000 | > 1000 | > 1000 | > 1000 | > 1000 | > 1000 | > 1000 | > 1000 |  |  |  | > 1000 | > 1000 | > 1000 | > 1000 | > 1000 | > 1000 | > 1000 | > 1000 | > 1000
CC(=O)OCc1c(C)c2ccccc2n1C(C)=O |  | > 100 |  | 71 |  | > 100 |  | > 100 |  |  |  |  |  | > 100 |  | > 100 |  | > 100 | > 100 | 
O=C(OC(CNc1c(C(=O)c2ccccc2)c(=O)n(Cc2ccccc2)c(=O)n1Cc1ccccc1)CN1CCCCC1)c1ccccc1 (stereo not drawn) | 50.3 | > 100 | 30.1 | > 100 | 18.3 | 35.5 | 16.3 | 31.1 | 21.1 | 46.7 | 13.8 | 31.8 |  |  | 37.6 | > 100 | 35.7 | > 100 | 63.4 | 24.7
COc1ccc(C(=O)c2cc(OC)c(OC)c(OC)c2)cc1/C=C/C(=O)c1ccc2c(c1)OCO2 | 4.39 | > 100 |  |  | 2.56 | > 100 |  |  | 3.09 | > 100 |  |  |  |  | 5.7 | 41.1 | 0.396 | 3.77 | 8.19 | 2.64
COc1cc([N+](=O)[O-])c(OC)cc1-c1nc2n(c1/C(N)=N/C(=N)N)CCS2 | 59.3 | > 100 | 12.3 | > 100 |  |  | > 100 | > 100 | 70.1 | > 100 | > 100 | > 100 | > 100 | > 100 | > 100 | > 100 | > 100 | > 100 | > 100 | > 100
N#C/C(=C\c1ccc([N+](=O)[O-])s1)c1nc2cc(Br)ccc2s1 | 0.509 | > 100 |  |  | 0.218 | 1.01 | 0.142 | 0.323 | 0.286 | 0.845 | 0.246 | 0.856 | 0.346 | > 100 | 1.64 | > 100 | 0.244 | 1.06 |  | 
N=C(N)c1ccc(-c2ccc(-c3ccc(Cl)c(Cl)c3)o2)nc1 |  |  | 1.74 | 3.22 | 1.47 | 2.85 |  |  |  |  | 2.33 | 5.19 | 1.76 | 3.34 | 1.53 | 3.23 |  |  | 3.01 | 1.57
Nc1nc(Cl)nc2c1ncn2C1CCC(COP(=O)(O)OP(=O)(O)OP(=O)(O)O)O1 (stereo not drawn) |  | 78.8 |  | > 100 |  | > 100 |  | 36.7 |  | > 100 |  |  |  | 54.1 |  | > 100 |  | > 100 | 93.3 | 
CC1=C2[C@@H](c3ccccc3)C3C=CC2(c2ccccc23)N(C(=O)Nc2cccc3ccccc23)C1=O (stereo partly drawn) |  | > 100 |  | > 100 |  | > 100 |  | > 100 |  |  |  | > 100 |  | > 100 |  | > 100 |  | > 100 | > 100 | 
